Read-outs that look alike come from different tables or passages of the source.
Tested on: Candida albicans
Experiment: Survival of mice infected with Candida albicans after oral administration
Format: in vivo
Details: for responders at 20 mg/kg: po
Method: To mice (one group consisting of 10 mice), which were innoculated with 4 to 9×10^6 Candida albicans, were administered orally 20 mg/kg of preparations after 1, 4 and 24 hours, and thereafter the survival rate until 21 days after infection was examined.

[1] = 336 h, mice inoculated with 4 to 9×10^6 Candida albicans, 20 mg/kg orally after 1, 4 and 24 hours, 14 days after infection, read-out: Survival rate % 14 days
[2] = 504 h, mice inoculated with 4 to 9×10^6 Candida albicans, 20 mg/kg orally after 1, 4 and 24 hours, 21 days after infection, read-out: Survival rate % 21 days

| Structure (SMILES) | responders at 20 mg/kg [1] | responders at 20 mg/kg [2] | further results |
| --- | --- | --- | --- |
| C[C@@H](S[C@H]1CO[C@H](/C=C/c2ccc(OC(F)(F)F)cc2)OC1)[C@](O)(Cn1cncn1)c1ccc(F)cc1F [Example 11, (2R,3R)-2-(2,4-Difluorophenyl)-1-(1 H-1,2,4-triazol-1-yl)-3-[[trans-2-[(E)-2-[4-(trifluoromethoxy)phenyl]vinyl]-1,3-dioxan-5-yl]thio]-2-butanol] | 100% | 100% | – |
| C[C@@H](S[C@H]1CO[C@H](/C=C/C=C/c2ccc(SC(F)(F)F)cc2)OC1)[C@](O)(Cn1cncn1)c1ccc(F)cc1F [Example 32, (2R,3R)-2-(2,4-Difluorophenyl)-1-(1 H-1,2,4-triazol-1-yl)-3-[[trans-2-[(1E, 3E) -4-[4-(trifluoromethylthio)phenyl]-1,3-butadien-1-yl]-1,3-dioxan-5-yl]thio]-2-butanol] | 100% | 100% | – |
| CC(C)(SC1COC(/C=C/c2ccc(C(F)(F)F)cc2)OC1)C(O)(Cn1cncn1)c1ccc(C(F)(F)F)cc1 (racemic) [Example 30, (RS)-3-Methyl-1-(1 H-1,2,4-triazol-1-yl)-2-[4-(trifluoromethyl)phenyl]-3-[[trans-2-[(E)-2-[4-(trifluoromethyl)phenyl]vinyl]-1,3-dioxan-5-yl]thio]-2-butanol] | 100% | 100% | – |
| C[C@@H](SC1CCN(C(=O)/C=C/c2ccc(OC(F)(F)F)cc2)CC1)[C@](O)(Cn1cncn1)c1ccc(F)cc1F [Example 21, (2R,3R)-2-(2,4-Difluorophenyl) -3-[[1-[(E)-4-(trifluoromethoxy)cinaamoyl]piperidin-4-yl]thio]-1-(1 H-1,2,4-triazol-1-yl)-2-butanol] | – | – | Survival rate % 14 days (mice inoculated with 4 to 9×10^6 Candida albicans, 20 mg/kg orally after 1, 4 and 24 hours, 14 days after infection): 100%; Survival rate % 21 days (mice inoculated with 4 to 9×10^6 Candida albicans, 20 mg/kg orally after 1, 4 and 24 hours, 21 days after infection): 60% |
| OC(Cn1cncn1)(Cn1cncn1)c1ccc(F)cc1F [Fluconazol, reference compound] | – | – | responders at 20 mg/kg (Candida albicans, 336 h, read-out: Survival rate % 14 days): 70%; responders at 20 mg/kg (Candida albicans, 504 h, read-out: Survival rate % 21 days): 60% |
| C[C@@H](S[C@H]1CO[C@H](/C=C/C=C/c2ccc([S+]([O-])C(F)(F)F)cc2)OC1)[C@](O)(Cn1cncn1)c1ccc(F)cc1F (stereo partly drawn) [Example 35, (2R,3R)-2-(2,4-Difluorophenyl)-1-(1 H-1,2,4-triazol-1-yl)-3-[[trans-2-[(1E,3E)-4-[4-(trifluoromethylsulfinyl)phenyl]-1,3-butadien-1-yl]-1,3-dioxan-5-yl]thio]-2-butanol] | 100% | 100% | – |
| C[C@@H](S[C@H]1CO[C@H](/C=C/C=C/c2ccc(C(F)(F)F)cc2)OC1)[C@](O)(Cn1cncn1)c1ccc(F)cc1F [Example 15, (2R,3R)-2-(2,4-Difluorophenyl)-1-(1 H-1,2,4-triazol-1-yl) -3-[[trans-2-[(1 E,3 E)-4-[4-(trifluoromethyl)phenyl]-1,3-butadien-1-yl]-1,3-dioxan-5-yl]thio]-2-butanol] | 100% | 100% | – |
| C[C@@H](S[C@H]1CO[C@H](/C=C/C=C(/c2ccc(Cl)cc2)C(F)(F)F)OC1)[C@](O)(Cn1cncn1)c1ccc(F)cc1F [Example 18, (2R,3R) -2-(2,4-Difluorophenyl)-3-[[trans-2-[(1 E,3 Z)-4-(4-chlorophenyl)-5,5,5-trifluoro-1,3-pentadien-1-yl]-1,3-dioxan-5-yl]thio]-1-(1 H-1,2,4-triazol-1-yl)-2-butanol] | 100% | 100% | – |
| C[C@@H](S[C@H]1CO[C@H](/C=C/C=C/c2ccc(OCC(F)(F)C(F)F)cc2)OC1)[C@](O)(Cn1cncn1)c1ccc(F)cc1F [Example 16, (2R,3R)-2-(2,4-Difluorophenyl)-3-[[trans-2-[(1 E,3 E)-4-[4-(2,2,3,3-tetrafluoropropoxy)phenyl]-1,3-butadien-1-yl]-1,3-dioxan-5-yl]thio]-1-(1 H-1,2,4-triazol-1-yl)-2-butanol] | 100% | 100% | – |
| CC(SC1COC(/C=C/C=C/C=C/c2ccc(C(F)(F)F)cc2)OC1)C(O)(Cn1cncn1)c1ccc(F)cc1F [Example 37, (2R,3R)-2-(2,4-Difluorophenyl)-1-(1 H-1,2,4-triazol-1-yl)-3-[[trans-2-[(1E,3E,5E)-6-[4-(trifluoromethyl)phenyl]-1,3,5-hexatrien-1-yl]-1,3-dioxam-5-yl]thio]-2-butanol] | 100% | 100% | – |
| C[C@@H](S[C@H]1CO[C@H](/C=C/c2ccc(C(F)(F)F)cc2)OC1)[C@](O)(Cn1cncn1)c1ccc(F)cc1F [Example 2, (2R,3R)-2-(2,4-Difluorophenyl)-3-[[trans-2-[(E)-2-[4-(trifluoromethyl)phenyl]vinyl]-1,3-dioxan-5-yl]thio]-1-(1 H-1,2,4-triazol-1-yl)-2-butanol] | 100% | 100% | – |

Reference: patent US20010031768A1, “Triazole antifungal agent” (SANKYO COMPANY LIMITED, priority 1995, published 2001)
